Type in all cases: in vivo
Test [1] concerns male ICR mouse. Briefly: Acetic acid-induced writhing test in mouse. The settings on record: po, p.o, acetic acid i.p. 1 hour after dosing, writhing counted for 10 minutes, read-out: Writhing Test Suppression of pain response. A digest of the protocol:
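Test material given orally at 10 mg/kg to male mice (30–35 g); 1 h later 0.8% acetic acid injected i.p. Writhes counted over 10 min immediately afterwards; analgesia expressed as percent suppression of writhing versus vehicle group.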

The test system of test [2] is male ICR mouse. Briefly: Hot plate test in mouse. The settings on record: po, p.o, 1 hour after dosing, hot plate 55° C., read-out: Hot Plate Test Increase in latency of avoidance response. Summed up: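 Male ICR mice (25–30 g) dosed orally at 30 mg/kg and placed on a 55° C. hot plate 1 h later. Latency to forefoot or hind-leg avoidance (flinching, licking, jumping) recorded; effect expressed as % increase in latency over vehicle group.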

The test system of test [3] is male ICR mouse. In words: Elevated plus maze (EPM) test in mouse. The settings on record: po, p.o, 1 hour after dosing, 5 minutes observation, read-out: Elevated Plus Maze Change index in Open-Arm Time. A digest of the protocol: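 Male ICR mice (20–25 g) received test material orally at 10 mg/kg, and open-arm time on the maze was recorded over 5 min starting 1 h after dosing. Value is the change index in open-arm time: (treated − vehicle)/vehicle × 100%.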

Test [4] relates to male ICR mouse. In words: Head twitch potentiation induced by 5-HTP (5-HTP potentiation test) in mouse. As to conditions: po, 0.5 h, p.o, 5-HTP 80 mg/kg + Carbidopa 25 mg/kg i.p. 30 minutes after dosing, head twitches counted for 2 minutes, negative = 5-HT2A antagonist, read-out: 5-HTP Potentiation Increase rate in Head Twitch No. A digest of the protocol: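 Male ICR mice (20-25 g) dosed orally at 30 mg/kg; 30 min later given 5-HTP (80 mg/kg) plus carbidopa (25 mg/kg) i.p. Head twitches counted for 2 min starting 30 min after i.p. dosing; effect expressed as % increase in twitch number versus vehicle group.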

`COc1ccc(N2CCN(C(=O)C[C@@H](OC(N)=O)c3ccccc3)CC2)cc1` [Example 70, (R)-carbamic acid 3-[4-(4-methoxy-phenyl)-piperazin-1-yl]-3-oxo-1-phenyl-propyl ester]: the inhibition in vivo at 10 mg/kg in the test on male ICR mouse [1] was 59.8%. Further, the change in vivo at 30 mg/kg with male ICR mouse [2] amounted to 30.6%; in the test on male ICR mouse [4], 87.9%. Further, in the test with male ICR mouse [3], the change in vivo at 10 mg/kg came to 109%.

For the molecule `COc1ccc(N2CCN(C(=O)C[C@@H](OC(N)=O)c3ccccc3)CC2)cc1OC` [Example 71, (R)-carbamic acid 3-[4-(3,4-dimethoxy-phenyl)-piperazin-1-yl]-3-oxo-1-phenyl-propyl ester], the inhibition in vivo at 10 mg/kg in the test on male ICR mouse [1] was 46.5%. Besides, the results for the change in vivo at 30 mg/kg with male ICR mouse [2] and with male ICR mouse [4] were 55.8% and 127%, respectively. Moreover, in the test on male ICR mouse [3], the change in vivo at 10 mg/kg was determined as 125%.

With `O=C1Nc2ccccc2C(CC(=O)N2CCN(c3ccccc3)CC2)O1` (stereo not shown) [Example 77, 4-[2-oxo-2-(4-phenyl-piperazin-1-yl)-ethyl]-1,4-dihydro-benzo[d][1,3]oxazin-2-one], in the test on male ICR mouse [1], the inhibition in vivo at 10 mg/kg was 26.4%. In addition, the change in vivo at 30 mg/kg in the test with male ICR mouse [2] stood at 30.4%; in the test on male ICR mouse [4] it was 25%. Moreover, the change in vivo at 10 mg/kg in the test with male ICR mouse [3] is 4.9%.

As to `NC(=O)O[C@@H](CC(=O)N1CCN(c2ccc(F)cc2)CC1)c1ccccc1` [Example 79, (S)-carbamic acid 3-[4-(4-fluoro)-phenylpiperazin-1-yl]-3-oxo-1-phenyl-propyl ester], the inhibition in vivo at 10 mg/kg in the test on male ICR mouse [1] stood at 40.7%. Besides, the change in vivo at 30 mg/kg is 29.3% in the test with male ICR mouse [2] and -30% in the test on male ICR mouse [4]. Moreover, the change in vivo at 10 mg/kg with male ICR mouse [3] is -5.1%.

On to `Cc1ccc(N2CCN(C(=O)C[C@@H](OC(N)=O)c3ccccc3)CC2)cc1` [Example 80, (R)-carbamic acid 3-[4-(4-methyl)-phenylpiperazin-1-yl]-3-oxo-1-phenyl-propyl ester], for which, in the test with male ICR mouse [1], the inhibition in vivo at 10 mg/kg amounted to 36.3%. Besides, the change in vivo at 30 mg/kg in the test on male ICR mouse [2] amounted to 16.7%; in the test with male ICR mouse [4], 12.5%. For the same molecule, the change in vivo at 10 mg/kg in the test on male ICR mouse [3] was found to be 41.2%.

Consider `Cc1ccc(N2CCN(C(=O)C[C@H](OC(N)=O)c3ccccc3)CC2)cc1` [Example 81, (S)-carbamic acid 3-[4-(4-methyl)-phenylpiperazin-1-yl]-3-oxo-1-phenyl-propyl ester], for which the inhibition in vivo at 10 mg/kg in the test with male ICR mouse [1] stood at 20.1%. For the same molecule, the change in vivo at 30 mg/kg in the test with male ICR mouse [2] is 9.2%; in the test on male ICR mouse [4], -21.4%. For the same molecule, in the test with male ICR mouse [3], the change in vivo at 10 mg/kg stood at 23%.

Regarding `NC(=O)O[C@H](CC(=O)N1CCN(c2ccc(F)cc2F)CC1)c1ccccc1` [Example 82, (R)-carbamic acid 3-[4-(2,4-difluoro)-phenylpiperazin-1-yl]-3-oxo-1-phenyl-propyl ester], the inhibition in vivo at 10 mg/kg in the test with male ICR mouse [1] was determined as 34.5%. Besides, the change in vivo at 30 mg/kg was 65.7% with male ICR mouse [2] and -20% with male ICR mouse [4]. Further, in the test on male ICR mouse [3], the change in vivo at 10 mg/kg was found to be 62.6%.

On to `NC(=O)O[C@H](CC(=O)N1CCN(c2ccc(O)cc2)CC1)c1ccccc1` [Example 83, (R)-carbamic acid 3-[4-(4-hydroxy)-phenylpiperazin-1-yl]-3-oxo-1-phenyl-propyl ester], for which the inhibition in vivo at 10 mg/kg in the test with male ICR mouse [1] amounted to 44.5%. In addition, the values for the change in vivo at 30 mg/kg in the test on male ICR mouse [2] and in the test with male ICR mouse [4] were 89.3% and 40.9%, respectively. Also, the change in vivo at 10 mg/kg in the test on male ICR mouse [3] worked out at 52.7%.

Take `NC(=O)O[C@@H](CC(=O)N1CCN(c2ccc(O)cc2)CC1)c1ccccc1` [Example 84, (S)-carbamic acid 3-[4-(4-hydroxy)-phenylpiperazin-1-yl]-3-oxo-1-phenyl-propyl ester]: the inhibition in vivo at 10 mg/kg with male ICR mouse [1] was 32%. Moreover, the change in vivo at 30 mg/kg with male ICR mouse [2] is 13.5%; with male ICR mouse [4], -37.5%. Also, the change in vivo at 10 mg/kg in the test with male ICR mouse [3] worked out at 65.6%.

Take `NC(=O)O[C@@H](CC(=O)N1CCN(c2ccc(Cl)cc2)CC1)c1ccccc1` [Example 85, (S)-carbamic acid 3-[4-(4-chloro)-phenylpiperazin-1-yl]-3-oxo-1-phenyl-propyl ester]: in the test with male ICR mouse [1], the inhibition in vivo at 10 mg/kg came out at 52%. The change in vivo at 30 mg/kg in the test with male ICR mouse [2] worked out at 25.3%; in the test on male ICR mouse [4], 222%. In the test on male ICR mouse [3], the change in vivo at 10 mg/kg came to 37%.

Source of the values: patent publication US8901116B2, “Method for treating pain, anxiety or depression using carbamoyloxy alkanoyl piperazine compound” (SK Biopharmaceuticals Co., Ltd., priority 2007, dated 2014).
